{"source": "patent US20090176711A1", "about": "“INHIBITORS OF AMYLOID PRECURSOR PROTEIN PROCESSING” (priority 2008, published 2009)", "key": {"[1]": {"molecular_target": "T1, Substrate W (Sub W, SEVKMDAEFR; β-secretase cleavage site of wild type APP) (Homo sapiens, UniProt P05067)", "T1 construct": "[…]; purchased Peptron, Inc; host or cells: chemical synthesis", "assay": "Binding of biotin-labeled Substrate W to immobilized complementary (HC) peptides", "method": "(§1) Complementary peptides (0.2, 2, 20, and 200 μM) were dissolved in phosphate buffered saline (PBS) (pH 7.4) and fixed to microtiter wells for 5 hr at 37° C. The wells were blocked with blocking buffer (3% BSA/PBS) for 1 hr at 37° C. Either N-terminally biotinylated Substrate W or M (20 μM) in blocking buffer was added and incubated for overnight at 4° C. Streptavidin-horseradish peroxidase in blocking buffer was added to detect resulting bound substrates. The plate was incubated for 2 hr at room temperature (RT), followed by addition of 3,3′,5,5′-tetramethyl-benzidine (TMB) as substrate for horseradish peroxidase for color reaction.\nIn particular, for Substrate W, complementary peptides (200 μM) dissolved in phosphate buffered saline (PBS) (pH 7.4) were chemically coupled to Reacti-Bind Maleic Anhydride Activated Polystyrene wells (Pierce Biotechnology, Inc.) for overnight at room temperature (RT). Remaining active sites of the plate were inactivated by adding ethanolamine (1 M) for 1 hr at RT. The wells were blocked with blocking buffer (3% BSA/PBS) for 1 hr at RT. N-terminally biotinylated Substrate W (20 μM) in blocking buffer was added and incubated for 3 hr at RT. Streptavidin-horseradish peroxidase in blocking buffer was added to detect resulting bound substrates. The plate was incubated for 2 hr at room temperature (RT), followed by addition of 3,3′,5,5′-tetramethyl-benzidine (TMB) as substrate for horseradish peroxidase for color reaction.\n(§2) Reacti-Bind™ maleic anhydride-activated polystyrene plate (Pierce, IL, USA) was coated with 50 μl of HC peptide (200 μM in distilled water) by chemical coupling for 3 h at room temperature (RT) and washed three times with phosphate buffered saline (PBS) containing 0.05% tween 20 (PBST). The plate was blocked with blocking buffer (0.5% gelatin in PBS) for 1 h at RT. After discarding blocking buffer, biotinylated BACE1 substrates (200 μM) in blocking buffer was applied on the plate and incubated for 2.5 h at RT. Each well was washed three times with PBST. The bound biotinylated BACE1 substrates were detected by incubation with streptavidin-horseradish peroxidase (Str-HRP, 125 mU/ml in blocking buffer) for 2 h at RT. Color reaction was carried out with 50 μl of 3,3′,5,5′-Tetramethylbenzidine Liquid Substrate (Sigma-Aldrich, MO, USA). After stopping the reaction by addition of an equal volume of 1 N HCl, absorbance at 450 nm was read in an automated ELISA reader (EL 312e, Bio-Tek Instruments, VT, USA). All assays were carried out in duplicate."}, "[2]": {"system": "APP processing in HEK293-APP cells", "assay": "APP inhibitor activity on HEK293-APP cells (βCTF Western blot)", "type": "cell-based, human", "conditions": "γ-secretase inhibitor and cholesterol added", "method": "In the neuronal cells of the brain, APP is processed by α-secretase or β-secretase. To investigate the effects of the inhibitors on the cell, a cell based assay system was developed as described in FIG. 10. C-terminal fragment of APP remaining on the cell membrane was detected by Western blot. The resulting C-terminal fragments, αCTF or βCTF are further processed by γ-secretase. However, if the cells are treated with the γ-secretase inhibitor, this processing is blocked. As a result, αCTF or βCTF accumulate in the cell. If β-secretase inhibitor or APP inhibitor is added, this processing is blocked and βCTF disappears.\nIn addition, γ-secretase inhibitor and cholesterol were added to the cells to increase βCTF level. Commercially available peptide-based β-secretase inhibitor was included as control (Lane 6, FIG. 11). To detect the N-terminal fragment of β-amyloid which is a product of APP processing, 6E10 antibody was employed. […] Recently, it has been reported that the commercially available peptide-based inhibitor had to be linked to an oligoarginine transporter peptide to have inhibitory activity against cells. Therefore, mimetic approach is adopted to produce cell permeable analogs. (Chang et al. J. Neurochemistry 2004; 89:1409-1416).\nAfter confirming the ability of the oligo-arginine coupled APP inhibitors to enter the cells, the inhibitors were applied to HEK293-APP cells overexpressing APP to test their inhibitory activities on APP processing. […] This inhibitor started to show significant inhibitory activity beginning from 0.1 μM (lower panel)."}, "[3]": {"system": "HEK293-APP cells", "assay": "Transport of peptides into cells (FITC label)", "type": "cell-based, human", "excerpt": "To overcome the problem of APP inhibitor's inability to penetrate across the cell membrane, APP inhibitors were coupled with oligo-arginine (R9 means 9 Arginines), which is known to be a transporter peptide. These coupled peptides were labeled with FITC (Fluorescein isothiocyanate) using a linker AHX (aminohexanoic acid) to investigate whether the inhibitors pass through the cell membrane. FITC-AHX-c-Sub M-R9 and FITC-AHX-c-Sub MΔN1C1-R9 were made.\nOligo-arginine coupled APP inhibitors that were labeled with FITC were added to HEK293-APP cells to see whether the peptides pass through the cell membrane."}, "[4]": {"system": "cleavage of Substrate M by β-secretase", "assay": "Inhibition of cleavage of Substrate M by β-secretase by complementary and deletion peptides (Examples 1, 5, 6; assay format not stated)", "type": "biochemical", "conditions": "for concentration dependent inhibitory activity, activity group: various concentrations, Substrate M (FIG. 8)", "method": "So far we have focused on c-Sub M peptide. Serial deletions were made from N-terminus or C-terminus of c-Sub M (FIG. 5), and we investigated effect of the deletions on the cleavage of Substrate M. The optimum peptide/substrate ratio for inhibition on the cleavage of substrate was determined by observing the inhibition percentage at various peptide/substrate ratios (FIG. 4). Subsequently, the inhibitory activity of the deletion peptides were tested at 10 inhibitor/substrate ratio and the concentration of the Substrate M was 50 μM. Deletion of the first two amino acids from the N-terminus had little effect on the activity and deletion of five amino acids from the C-terminus of c-Sub M had little effect on the inhibitory activity (FIG. 6). Further deleted peptides were tested for inhibitory activity on the cleavage of Substrate M (FIG. 7).\nThe above-mentioned peptides that have inhibitory activity were tested at various concentrations for their inhibitory activities on their mutant substrate Substrate M (FIG. 8)."}, "[5]": {"system": "Substrate M (Sub M, SEVNLDAEFR; β-secretase cleavage site of APPsw)", "assay": "Binding of biotin-labeled Substrate M to immobilized complementary (HC) peptides", "conditions": "for binding activity for Sub M: HC peptides chemically coupled to plate, bio-Sub M", "method": "as §1, §2"}, "[6]": {"molecular_target": "T2, rhBACE1 (Homo sapiens, UniProt P56817)", "T2 construct": "purchased R&D Systems, Inc", "T2 sequence (P56817 46-501)": "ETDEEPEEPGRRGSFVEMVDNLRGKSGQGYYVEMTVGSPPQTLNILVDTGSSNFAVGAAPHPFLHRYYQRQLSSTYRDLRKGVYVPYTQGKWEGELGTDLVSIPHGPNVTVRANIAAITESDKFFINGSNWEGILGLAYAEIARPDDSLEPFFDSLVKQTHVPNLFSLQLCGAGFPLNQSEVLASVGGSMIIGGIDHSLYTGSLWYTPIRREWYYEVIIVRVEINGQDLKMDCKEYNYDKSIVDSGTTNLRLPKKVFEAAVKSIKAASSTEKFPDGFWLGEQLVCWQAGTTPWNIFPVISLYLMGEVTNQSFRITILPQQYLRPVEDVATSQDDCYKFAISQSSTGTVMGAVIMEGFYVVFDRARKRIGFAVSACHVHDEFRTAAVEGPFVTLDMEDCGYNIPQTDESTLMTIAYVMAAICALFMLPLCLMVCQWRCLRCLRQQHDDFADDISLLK", "assay": "ELISA binding of rhBACE1 to immobilized c-Sub M", "excerpt": "In one embodiment of the present invention, four HC decapeptides targeted to either wild type APP or APPsw may be designed. […] Therefore, there is possibility that c-Sub M or any compounds derived from c-Sub M may inhibit production of Aβ from wild type APP in cells."}, "[7]": {"system": "cleavage of Sub M by rhBACE1", "assay": "HPLC analysis of the cleavage of Sub M by rhBACE1", "type": "biochemical, human", "conditions": "25-fold amount of inhibitor, 420 nM β-secretase", "method": "Substrate M (100 μM) was preincubated with complementary peptides ([…]) in assay buffer (100 μl) overnight at RT. rhBACE (140 nM) in assay buffer was added and incubated for 11 hr at RT. Cleavage products of Substrate M by rhBACE were quantitated after separation by C-18 reversed-phase column chromatography (GRACE VyDAC).\nOne of the advantages of the APP inhibitor described in the present invention is that it is a peptide or a mimetic that bind to the β-secretase cleavage site of APP, thus not affecting other β-secretase substrates. To confirm the specificity of the inventive APP inhibitor, two different types of substrates were used, APP Sub M and ST6Ga11. Both substrates are cleaved by β-secretase under normal conditions and the effect of the inventive APP inhibitor on the substrate cleavage was monitored by HPLC (See the schematic diagram in FIG. 16.) To carry out these experiments, the concentration of β-secretase required for cleavage of both substrates was determined as shown in FIG. 17. For substantial cleavage of ST6Ga11 substrate, 420 nM of the enzyme was required. Therefore, 420 nM of β-secretase was used for the following experiment.\nReversed-phase HPLC was also used to analyze the products of enzyme action in vitro. […] The cleavage products were identified at 215 nm and quantitated by integrating the area under each peak. […]"}, "[8]": {"system": "γ-secretase (membrane fractions of N2a cells)", "assay": "γ-Secretase activity assay on membrane fractions of N2a cells", "type": "biochemical, mouse", "conditions": "200 μM peptide, 12.5 μM fluorogenic substrate, 1 hour preincubation", "method": "Since γ-secretase is composed of four components, cloning of γ-secretase gene is impossible. Therefore, cell extracts were used as γ-secretase source. To obtain the cell extracts, after cell lysis with extraction buffer, the lysate was centrifuged at 10,000×g for 1 minute. Afterward, 2× reaction buffer and fluorogenic substrate was mixed and added to the cell lysate. Then, this mixture was incubated at 37° C. and γ-secretase activity was detected at excitation 335 to 355 nm and emission 495 to 510 nm.\nγ-Secretase activity assay was performed on membrane fractions of N2a cells in the presence of several complementary peptides. After 12.5 μM fluorogenic substrate and 200 μM each of the complementary peptides were preincubated for 1 hour, γ-secretase was added to the mixture. In the course of time, the fluorogenic substrate was cleaved by the γ-secretase."}, "[9]": {"system": "γ-secretase cleavage in KEK293 APP cells", "assay": "Cell based γ-secretase assay (α-CTF Western)", "set-up": "species or system human", "conditions": "cells treated for 9 hours", "method": "In order to test these peptides in the cell for their inhibitory effect on γ-secretase cleavage, a cell based assay was developed. After KEK293 APP cells were cultured in 6 well culture plates with 90% confluency, the cells were treated for 9 hours with N-[N-(3,5-difluorophenacetyl)-L-alanyl]-(S)-phenylglycine t-butyl ester (DAPT) (Dovey H F et al, J. Neurochemistry 2001;76:173-181), which is a known γ-secretase inhibitor, and complementary peptides. The cells in each well were lysed and these lysates were separated with 15% tris-tricine gel. Western analysis was performed with R1 antibody as primary antibody and goat anti-rabbit-HRP as secondary antibody."}}, "note": "“Also recorded” adds a separate entry of the source. No end group written: not given here.", "data": [{"compound": "SEFCIQIHFR-NH2 [c-Sub M, SEFCIQIHFR]", "values": [{"measurement": "binding to Sub W relative to c-Sub W", "setting": "[1]; HC peptides chemically coupled, bio-Sub W", "value": 4, "unit": "fold"}, {"measurement": "binding to Substrate W", "setting": "[1]; complementary peptide immobilized, biotin-labeled Substrate W", "value": "binds the wild type substrate Sub W efficiently"}, {"measurement": "inhibitory activity on APP processing (βCTF)", "setting": "[2]", "value": "does not inhibit the processing of APP in cells; also recorded: none of the inhibitors tested showed inhibitory activity"}, {"measurement": "transport into the cells", "setting": "[3]", "value": "does not enter the cells"}, {"measurement": "inhibition of cleavage of Substrate M by β-secretase", "setting": "[4]; FIG. 4", "value": "inhibit cleavage"}, {"measurement": "concentration dependent inhibitory activity, activity group", "setting": "[4]", "value": "less activity"}, {"measurement": "binding activity for Sub M", "setting": "[5]", "value": "highest binding"}, {"measurement": "binding activity for Sub M", "setting": "[5]; listed as c-Sub", "value": "bound"}, {"measurement": "binding to Substrate M", "setting": "[5]; complementary peptide immobilized, biotin-labeled Substrate M", "value": "binds to Sub M appreciably and bind and binds its substrate Sub M"}, {"measurement": "absorbance in binding test", "setting": "[5]; substrate not specified", "value": "high absorbance"}, {"measurement": "binding to rhBACE1", "setting": "[6]", "value": "does not bind to rhBACE1"}]}, {"compound": "FCIQIHF (also: cyclic, mode of cyclisation not given here) [c-Sub M ΔN2C1]", "values": [{"measurement": "concentration dependent inhibitory activity, activity group", "setting": "[4]", "value": "most active group"}, {"measurement": "Sub M cleavage blocked", "setting": "[7]", "value": "about 60%"}]}, {"compound": "PQQYRCHRQR [rCh2 (3′→5′)]", "values": [{"measurement": "inhibitory effect on γ-secretase activity", "setting": "[8]", "value": "about 80%"}]}, {"compound": "C[C@H](NC(=O)Cc1cc(F)cc(F)c1)C(=O)N[C@H](C(=O)OC(C)(C)C)c1ccccc1", "note": "[DAPT, N-[N-(3,5-difluorophenacetyl)-L-alanyl]-(S)-phenylglycine t-butyl ester]", "values": [{"measurement": "inhibition of γ-secretase activity in cells (α-CTF accumulation)", "setting": "[9]", "value": "inhibits γ-secretase activity very effectively"}]}]}
